# In ChEMBL document CHEMBL2434868, “Chemical investigation of an antimalarial Chinese medicinal herb Picrorhiza scrophulariiflora” (Bioorg Med Chem Lett, 2013):
# How the values were obtained:
# [1] = test system: Plasmodium falciparum; experiment: Antimalarial activity against ring stage of Plasmodium falciparum 3D7 infected in erythrocytes assessed as [3H]-hypoxanthine incorporation after 48 hrs by liquid scintillation counting analysis; format: functional, organism-based
# [2] = test system: NFF; experiment: Cytotoxicity against human NFF cells up to 100 uM after 3 days by SRB assay; format: cell-based; conditions: 72 h
SMILES,IC50 [1],other results
O=C(/C=C/c1ccccc1)OC[C@H]1O[C@@H](OC[C@@H](O)[C@@H](O)[C@H](O)[C@H](O)CO)[C@H](O)[C@@H](O)[C@@H]1O,> 25 µM,
O=C(/C=C/c1ccc(O)c(O)c1)OC[C@H]1O[C@@H](OC[C@@H](O)[C@@H](O)[C@H](O)[C@H](O)CO)[C@H](O)[C@@H](O)[C@@H]1O,> 25 µM,
CC(=O)OC(C)(C)CCC(=O)[C@](C)(O)[C@H]1[C@H](O)C[C@@]2(C)[C@@H]3CC=C4[C@H](C[C@H](O[C@@H]5O[C@H](CO)[C@@H](O)[C@H](O)[C@H]5O)[C@H](O)C4(C)C)[C@]3(C)CC[C@]12C,> 25 µM,
CC(=O)OC(C)(C)/C=C/C(=O)[C@](C)(O)[C@H]1[C@H](O)C[C@@]2(C)[C@@H]3CC=C4[C@H](C[C@H](O[C@@H]5O[C@H](CO)[C@@H](O)[C@H](O)[C@H]5O)[C@H](O)C4(C)C)[C@]3(C)CC[C@]12C,8.3 µM,IC90 [1]: 17.3 µM; IC95 [1]: 23.5 µM; Activity [2]: Non-toxic
O=C(/C=C/c1ccccc1)OC[C@H]1O[C@@H](O[C@@H]2OC=C[C@H]3[C@H](O)[C@@H]4O[C@]4(CO)[C@@H]23)[C@H](O)[C@@H](O)[C@@H]1O [PICROSIDE I],> 25 µM,

# Continued, in another order:
IC50 [1],SMILES,other results
> 25 µM,COc1cc(C(=O)O)ccc1O[C@@H]1O[C@H](COC(=O)/C=C/c2ccccc2)[C@@H](O)[C@H](O)[C@H]1O,
> 25 µM,COc1cc(C(C)=O)ccc1O[C@@H]1O[C@H](COC(=O)/C=C/c2ccc(O)cc2)[C@@H](O)[C@H](O)[C@H]1O,
> 25 µM,CC(=O)c1ccc(O[C@@H]2O[C@H](COC(=O)/C=C/c3ccc(O)cc3)[C@@H](O)[C@H](O)[C@H]2O)cc1,
> 25 µM,COc1cc(/C=C/C(=O)OC[C@H]2O[C@@H](Oc3ccc(C(C)=O)cc3OC)[C@H](O)[C@@H](O)[C@@H]2O)ccc1O,
> 25 µM,COc1cc(C(C)=O)ccc1O[C@@H]1O[C@H](COC(=O)/C=C/c2ccccc2)[C@@H](O)[C@H](O)[C@H]1O,
